Test results reported in ChEMBL document CHEMBL3616388, “Discovery of novel nonpeptide allosteric inhibitors interrupting the interaction of CDK2/cyclin A3 by virtual screening and bioassays” (Bioorg Med Chem Lett, 2015).

Assays:
[1] = target: T1, Cyclin-dependent kinase 2 (Homo sapiens, UniProt P24941); assay: Binding affinity to N-terminal His-tagged recombinant human CDK2 (1 to 298 amino acid residues) expressed in Escherichia coli BL21 assessed as inhibition of interaction with cyclin A3 by measuring HHASPRK phosphorylation at 100 uM by ADP-Glo Max assay relative to control
HepG2 = assay: Cytotoxicity against human HepG2 cells assessed as cell viability after 72 hrs by MTS assay; type: functional, cell-based
A549 [2] = assay: Cell cycle arrest in human A549 cells assessed as accumulation at S phase at 25 uM after 72 hrs by propidium iodide staining-based flow cytometric analysis (reference value: 11.53%); type: functional
[3] = target: T1, Cyclin-dependent kinase 2; assay: Binding affinity to N-terminal His-tagged recombinant human CDK2 (1 to 298 amino acid residues) expressed in Escherichia coli BL21 assessed as inhibition of interaction with cyclin A3 by measuring 250 uM HHASPRK phosphorylation by ADP-Glo Max assay in presence of 375 uM ATP
A549 [4] = assay: Cell cycle arrest in human A549 cells assessed as accumulation at G2/M phase at 50 uM after 72 hrs by propidium iodide staining-based flow cytometric analysis (reference value: 19.79%); type: functional
A549 [5] = assay: Cell cycle arrest in human A549 cells assessed as accumulation at G0/G1 phase at 50 uM after 72 hrs by propidium iodide staining-based flow cytometric analysis (reference value: 68.68%); type: functional
[6] = target: Cyclin-dependent kinase 2 (Homo sapiens, UniProt P24941, R150A); assay: Binding affinity to human CDK2 R150A mutant expressed in Escherichia coli BL21 assessed as inhibition of interaction with cyclin A3 by measuring HHASPRK phosphorylation by ADP-Glo Max assay
A549 [7] = assay: Cell cycle arrest in human A549 cells assessed as accumulation at G0/G1 phase at 25 uM after 72 hrs by propidium iodide staining-based flow cytometric analysis (reference value: 68.68%); type: functional
[8] = target: T1, Cyclin-dependent kinase 2; assay: Binding affinity to N-terminal His-tagged recombinant human CDK2 (1 to 298 amino acid residues) expressed in Escherichia coli BL21 assessed as inhibition of interaction with cyclin A3 by measuring 1.25 mM HHASPRK phosphorylation by ADP-Glo Max assay in presence of 75 uM ATP
MDA-MB-231 = assay: Cytotoxicity against human MDA-MB-231 cells assessed as cell viability after 72 hrs by MTS assay; type: functional, cell-based
[9] = target: T1, Cyclin-dependent kinase 2; assay: Binding affinity to GST-tagged recombinant human CDK2 (1 to 298 amino acid residues) expressed in Escherichia coli BL21 assessed as inhibition of interaction with His-tagged cyclin A3 preincubated overnight with GST-tagged protein followed by His-tagged cyclin A3 addition by GST pull down assay
A549 [10] = assay: Cell cycle arrest in human A549 cells assessed as accumulation at G0/G1 phase at 200 uM after 72 hrs by propidium iodide staining-based flow cytometric analysis (reference value: 68.68%); type: functional
[11] = target: T1, Cyclin-dependent kinase 2; assay: Binding affinity to N-terminal His-tagged recombinant human CDK2 (1 to 298 amino acid residues) expressed in Escherichia coli BL21 assessed as inhibition of interaction with cyclin A3 by measuring 2.5 mM HHASPRK phosphorylation by ADP-Glo Max assay in presence of 75 uM ATP
[12] = target: Cyclin-dependent kinase 2 (Homo sapiens, UniProt P24941, Y180A); assay: Binding affinity to human CDK2 Y180A mutant expressed in Escherichia coli BL21 assessed as inhibition of interaction with cyclin A3 by measuring HHASPRK phosphorylation by ADP-Glo Max assay
A549 [13] = assay: Cytotoxicity against human A549 cells assessed as cell viability after 72 hrs by MTS assay; type: functional, cell-based
A549 [14] = assay: Cell cycle arrest in human A549 cells assessed as accumulation at G0/G1 phase at 10 uM after 72 hrs by propidium iodide staining-based flow cytometric analysis (reference value: 68.68%); type: functional
A549 [15] = assay: Cell cycle arrest in human A549 cells assessed as accumulation at G2/M phase at 25 uM after 72 hrs by propidium iodide staining-based flow cytometric analysis (reference value: 19.79%); type: functional
[16] = target: T1, Cyclin-dependent kinase 2; assay: Binding affinity to N-terminal His-tagged recombinant human CDK2 (1 to 298 amino acid residues) expressed in Escherichia coli BL21 assessed as inhibition of interaction with cyclin A3 by measuring 250 uM HHASPRK phosphorylation by ADP-Glo Max assay in presence of 750 uM ATP
A549 [17] = assay: Cell cycle arrest in human A549 cells assessed as accumulation at S phase at 200 uM after 72 hrs by propidium iodide staining-based flow cytometric analysis (reference value: 11.53%); type: functional
A549 [18] = assay: Cell cycle arrest in human A549 cells assessed as accumulation at S phase at 10 uM after 72 hrs by propidium iodide staining-based flow cytometric analysis (reference value: 11.53%); type: functional
[19] = target: T1, Cyclin-dependent kinase 2; assay: Binding affinity to N-terminal His-tagged recombinant human CDK2 (1 to 298 amino acid residues) expressed in Escherichia coli BL21 assessed as inhibition of interaction with cyclin A3 by measuring 250 uM HHASPRK phosphorylation by ADP-Glo Max assay in presence of 75 uM ATP
A549 [20] = assay: Cell cycle arrest in human A549 cells assessed as accumulation at S phase at 50 uM after 72 hrs by propidium iodide staining-based flow cytometric analysis (reference value: 11.53%); type: functional
A549 [21] = assay: Cell cycle arrest in human A549 cells assessed as accumulation at G2/M phase at 200 uM after 72 hrs by propidium iodide staining-based flow cytometric analysis (reference value: 19.79%); type: functional
A549 [22] = assay: Cell cycle arrest in human A549 cells assessed as accumulation at G2/M phase at 10 uM after 72 hrs by propidium iodide staining-based flow cytometric analysis (reference value: 19.79%); type: functional

## Cn1c(=O)[nH]c(=O)c2c1nc(N/N=C1/C(=O)Nc3ccccc31)n2CC(O)COc1ccccc1 (centres undefined)
[1]
  inhibition: < 5%

## OC(CN1CCN(CC(O)Cn2c3ccc(Br)cc3c3cc(Br)cc(Br)c32)CC1)Cn1c2ccccc2c2ccccc21 (centres undefined)
[1]
  inhibition: 31%

## Cc1[nH]c2ccccc2c1/C=N/c1ccccc1C(=O)O
[1]
  inhibition: < 5%

## Cc1cc(C)nc(NS(=O)(=O)c2ccc(NC(=O)CCCCC(=O)Nc3ccc(S(=O)(=O)Nc4nc(C)cc(C)n4)cc3)cc2)n1
[1]
  inhibition: 38%

## CN1C(=O)c2cccc3c(S(=O)(=O)NCCC(=O)O)ccc1c23
[1]
  inhibition: 5.54%

## CCOC(=O)C(Cc1ccc(OC)c([N+](=O)[O-])c1)NC(=O)CCC(=O)Nc1ccc(S(N)(=O)=O)cc1 (centres undefined)
[1]
  inhibition: < 5%

## CC(=O)C1=C(O)C(=O)N(CO)C1c1ccccc1 (centres undefined)
[1]
  inhibition: < 5%

## COc1ccccc1OCCOc1ccccc1/C=c1\sc2n(c1=O)C(c1ccccc1)C(C(=O)Nc1ccccc1)=C(C)N=2 (centres undefined)
[1]
  inhibition: < 5%

## CSc1ccc(/C=N/c2cc([N+](=O)[O-])ccc2O)cc1
HepG2
  Activity: Dose-dependent effect
A549 [2]
  Activity: 21.91%
[3]
  IC50: 78.3 µM
A549 [4]
  Activity: 12.99%
A549 [5]
  Activity: 60.8%
[6]
  IC50: 885 µM
A549 [7]
  Activity: 65.26%
[8]
  IC50: 58.1 µM
MDA-MB-231
  Activity: Dose-dependent effect
[1]
  inhibition: 65.5%
[9]
  Activity: Dose-dependent effect
A549 [10]
  Activity: 43.49%
[11]
  IC50: 69.8 µM
[12]
  IC50: 151 µM
A549 [13]
  Activity: Dose-dependent effect
A549 [14]
  Activity: 66.03%
A549 [15]
  Activity: 12.83%
[16]
  IC50: 55.1 µM
A549 [17]
  Activity: 41.3%
A549 [18]
  Activity: 15.21%
[19]
  IC50: 52.1 µM
A549 [20]
  Activity: 26.21%
A549 [21]
  Activity: 15.2%
A549 [22]
  Activity: 18.76%

## O=C(CSc1nc2ccc(NC(=O)CSCC(=O)Nc3ccc4ccccc4c3)cc2s1)NCCOc1ccccc1
[1]
  inhibition: < 5%

## C/C(Cc1ccccc1)=N\Nc1nnc2c(n1)[nH]c1ccccc12
[1]
  inhibition: 35.2%

## Cc1ccccc1C(=O)N(Cc1ccc(C(F)(F)F)cc1)c1ccc(CC(=O)NCc2ccc(F)cc2)cc1
[1]
  inhibition: 37.5%

## CCOc1cc(C(=O)Nc2ccc(S(=O)(=O)Nc3nc(C)cc(C)n3)cc2)cc(OCC)c1OCC
[1]
  inhibition: 62.3%
[19]
  IC50: 105 µM

## CCN(C(=O)CCNC(=O)Cn1cnc2ccccc2c1=O)c1cccc(C(F)(F)F)c1
[1]
  inhibition: 8.39%

## Cc1ccc(S(=O)(=O)Nc2ccc(C(=O)N3N=C(c4c(-c5ccccc5)c5cc(Br)ccc5[nH]c4=O)CC3c3ccccc3)cc2)cc1 (centres undefined)
[1]
  inhibition: < 5%
